Measured values reported in publication PMC10218596 (International Journal of Molecular Sciences, 2023).
Where a SMILES comes first, the peptide text is derived from it. Bridges are numbered along the chain shown (N, C = ends).

What was measured:
[1] = molecular target: T1, h[α6V32L/α3]β4 (Homo sapiens, UniProt P30926+P32297+Q15825, V65L); assay: cell-based; settings: read-out: inhibition of the current response to 100 μM ACh
T1 construct: formed by splicing the N-terminal extracellular domain of the α6 subunit with the α3 subunit; human nAChR α3 subunit (CHRNA3); expressed in transfected cells; host or cells: Xenopus laevis oocytes injected with cRNA (plasmids from the University of Utah)

[2] = system: h[α6V32L/α3]β4; assay: cell-based; design: species or system human
[3] = molecular target: T2, h[α6R3Q/α3]β4 (Homo sapiens, UniProt P30926+P32297+Q15825, R36Q); assay type: cell-based
T2 construct: formed by splicing the N-terminal extracellular domain of the α6 subunit with the α3 subunit; human nAChR α3 subunit (CHRNA3); expressed in transfected cells; host or cells: Xenopus laevis oocytes injected with cRNA (plasmids from the University of Utah)

[4] = molecular target: T3, hα6/α3β4T65A (Homo sapiens, UniProt P30926+Q15825, T91A); assay type: cell-based
T3 construct: splicing the N-terminal extracellular domain of the α6 subunit with the α3 subunit; mutant made by PCR mutagenesis; host or cells: Xenopus laevis oocytes injected with cRNA

[5] = molecular target: T4, hα6/α3β4L107V, V115I (Homo sapiens, UniProt P30926+Q15825, L133V/V141I); assay: cell-based; assay type: cell-based
T4 construct: formed by splicing the N-terminal extracellular domain of the α6 subunit with the α3 subunit; fusion partner: remainder of the human α3 subunit (CHRNA3); expressed in transfected cells; host or cells: Xenopus laevis oocytes injected with cRNA

[6] = molecular target: T5, hα6/α3β4L116Q (Homo sapiens, UniProt P30926+Q15825, L142Q); assay type: cell-based
T5 construct: splicing the N-terminal extracellular domain of the α6 subunit with the α3 subunit; mutant made by PCR mutagenesis; host or cells: Xenopus laevis oocytes injected with cRNA

[7] = molecular target: T6, h[α6M67T/α3]β4 (Homo sapiens, UniProt P30926+P32297+Q15825, M100T); assay type: cell-based
T6 construct: formed by splicing the N-terminal extracellular domain of the α6 subunit with the α3 subunit; fusion partner: remainder of the human α3 subunit (CHRNA3); expressed in transfected cells; host or cells: Xenopus laevis oocytes injected with cRNA

[8] = system: h[α6M67T/α3]β4; assay type: cell-based, human
[9] = molecular target: T7, h[α6R63C/α3]β4 (Homo sapiens, UniProt P30926+P32297+Q15825, R96C); assay type: cell-based
T7 construct: formed by splicing the N-terminal extracellular domain of the α6 subunit with the α3 subunit; human nAChR α3 subunit (CHRNA3); expressed in transfected cells; host or cells: Xenopus laevis oocytes injected with cRNA (plasmids from the University of Utah)

[10] = system: h[α6R63C/α3]β4; assay type: cell-based, human
[11] = molecular target: T8, h[α6V32L, K61R/α3]β4L107V,V115I (Homo sapiens, UniProt P30926+P32297+Q15825, K94R/L133V/V141I/V65L); assay: cell-based
T8 construct: formed by splicing the N-terminal extracellular domain of the α6 subunit with the α3 subunit; fusion partner: remainder of the human α3 subunit (CHRNA3); expressed in transfected cells; host or cells: Xenopus laevis oocytes injected with cRNA

[12] = molecular target: T9, h[α6K7T/α3]β4 (Homo sapiens, UniProt P30926+P32297+Q15825, K40T); assay type: cell-based
T9 construct: formed by splicing the N-terminal extracellular domain of the α6 subunit with the α3 subunit; human nAChR α3 subunit (CHRNA3); expressed in transfected cells; host or cells: Xenopus laevis oocytes injected with cRNA (plasmids from the University of Utah)

[13] = molecular target: T10, h[α6M112V/α3]β4 (Homo sapiens, UniProt P30926+P32297+Q15825, M145V); assay type: cell-based
T10 construct: formed by splicing the N-terminal extracellular domain of the α6 subunit with the α3 subunit; fusion partner: remainder of the human α3 subunit (CHRNA3); expressed in transfected cells; host or cells: Xenopus laevis oocytes injected with cRNA

[14] = molecular target: T11, h[α6N110D/α3]β4 (Homo sapiens, UniProt P30926+P32297+Q15825, N143D); assay type: cell-based
T11 construct: formed by splicing the N-terminal extracellular domain of the α6 subunit with the α3 subunit; fusion partner: remainder of the human α3 subunit (CHRNA3); expressed in transfected cells; host or cells: Xenopus laevis oocytes injected with cRNA

[15] = molecular target: T12, h[α6S10A/α3]β4 (Homo sapiens, UniProt P30926+P32297+Q15825, S43A); assay type: cell-based
T12 construct: formed by splicing the N-terminal extracellular domain of the α6 subunit with the α3 subunit; human nAChR α3 subunit (CHRNA3); expressed in transfected cells; host or cells: Xenopus laevis oocytes injected with cRNA (plasmids from the University of Utah)

[16] = system: h[α6S10A/α3]β4; assay type: cell-based, human
[17] = molecular target: T13, h[α6Q14R/α3]β4 (Homo sapiens, UniProt P30926+P32297+Q15825, Q47R); assay type: cell-based
T13 construct: formed by splicing the N-terminal extracellular domain of the α6 subunit with the α3 subunit; human nAChR α3 subunit (CHRNA3); expressed in transfected cells; host or cells: Xenopus laevis oocytes injected with cRNA (plasmids from the University of Utah)

[18] = system: h[α6Q14R/α3]β4; assay type: cell-based, human
[19] = molecular target: T14, hα6/α3β4R70C (Homo sapiens, UniProt P30926+Q15825, R96C); assay type: cell-based
T14 construct: splicing the N-terminal extracellular domain of the α6 subunit with the α3 subunit; mutant made by PCR mutagenesis; host or cells: Xenopus laevis oocytes injected with cRNA

[20] = molecular target: T15, hα6/α3β4K31R (Homo sapiens, UniProt P30926+Q15825, K57R); assay type: cell-based
T15 construct: splicing the N-terminal extracellular domain of the α6 subunit with the α3 subunit; mutant made by PCR mutagenesis; host or cells: Xenopus laevis oocytes injected with cRNA

[21] = molecular target: T16, hα6/α3β4Q33E (Homo sapiens, UniProt P30926+Q15825, Q59E); assay type: cell-based
T16 construct: splicing the N-terminal extracellular domain of the α6 subunit with the α3 subunit; mutant made by PCR mutagenesis; host or cells: Xenopus laevis oocytes injected with cRNA

[22] = system: rat α6/α3β2β3 nAChR; settings: cited from earlier work
[23] = molecular target: T17, hα6/α3β4M160K (Homo sapiens, UniProt P30926+Q15825, M186K); assay type: cell-based
T17 construct: formed by splicing the N-terminal extracellular domain of the α6 subunit with the α3 subunit; human nAChR α3 subunit (CHRNA3); expressed in transfected cells; host or cells: Xenopus laevis oocytes injected with cRNA (plasmids from the University of Utah)

[24] = molecular target: T18, hα6/α3β4I84V (Homo sapiens, UniProt P30926+Q15825, I110V); assay type: cell-based
T18 construct: splicing the N-terminal extracellular domain of the α6 subunit with the α3 subunit; mutant made by PCR mutagenesis; host or cells: Xenopus laevis oocytes injected with cRNA

[25] = read-out: inhibition of the current response to 100 μM ACh

T4 sequence (Q15825 26-239 limits assumed): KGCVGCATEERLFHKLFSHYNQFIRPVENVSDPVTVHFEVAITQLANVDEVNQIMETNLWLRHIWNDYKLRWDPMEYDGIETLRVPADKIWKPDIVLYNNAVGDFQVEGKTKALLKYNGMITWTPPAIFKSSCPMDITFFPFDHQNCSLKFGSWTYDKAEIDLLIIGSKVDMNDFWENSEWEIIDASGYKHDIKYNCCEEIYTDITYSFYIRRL
T4 sequence (P30926 22-498 L133V/V141I): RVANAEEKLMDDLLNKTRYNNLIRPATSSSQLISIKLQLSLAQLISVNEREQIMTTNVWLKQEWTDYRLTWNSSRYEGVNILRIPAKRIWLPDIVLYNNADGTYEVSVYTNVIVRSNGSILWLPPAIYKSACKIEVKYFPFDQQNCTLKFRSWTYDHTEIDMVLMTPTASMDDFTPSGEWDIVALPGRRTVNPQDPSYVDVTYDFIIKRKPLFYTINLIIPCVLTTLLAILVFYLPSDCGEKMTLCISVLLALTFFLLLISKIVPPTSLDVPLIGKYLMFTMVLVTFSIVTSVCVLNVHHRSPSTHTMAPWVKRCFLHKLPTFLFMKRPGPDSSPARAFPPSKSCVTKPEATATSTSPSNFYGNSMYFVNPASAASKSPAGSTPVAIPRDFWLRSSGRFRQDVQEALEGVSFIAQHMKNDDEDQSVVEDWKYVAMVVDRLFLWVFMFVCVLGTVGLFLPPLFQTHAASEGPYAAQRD
T8 sequence (Q15825+P32297 fused with the stated changes): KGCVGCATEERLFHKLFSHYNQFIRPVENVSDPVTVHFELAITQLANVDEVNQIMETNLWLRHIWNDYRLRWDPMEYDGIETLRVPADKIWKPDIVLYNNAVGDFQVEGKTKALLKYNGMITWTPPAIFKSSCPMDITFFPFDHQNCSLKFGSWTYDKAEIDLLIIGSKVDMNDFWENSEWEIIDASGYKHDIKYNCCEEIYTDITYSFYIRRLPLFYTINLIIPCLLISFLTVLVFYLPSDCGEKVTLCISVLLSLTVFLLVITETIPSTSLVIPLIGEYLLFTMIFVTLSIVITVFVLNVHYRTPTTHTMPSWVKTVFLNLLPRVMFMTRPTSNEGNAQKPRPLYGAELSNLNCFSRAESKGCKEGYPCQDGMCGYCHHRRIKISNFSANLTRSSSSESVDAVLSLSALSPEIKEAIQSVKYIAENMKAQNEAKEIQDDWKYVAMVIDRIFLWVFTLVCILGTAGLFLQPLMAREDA
T8 sequence (P30926 22-498 L133V/V141I): as the sequence (P30926 22-498 L133V/V141I) above
T3 sequence (Q15825 26-239 limits assumed): as the sequence (Q15825 26-239 limits assumed) above
T3 sequence (P30926 22-498 T91A): as the sequence (P30926 22-498 L133V/V141I) above, with T70A, V112L, I120V counted along it
T5 sequence (Q15825 26-239 limits assumed): as the sequence (Q15825 26-239 limits assumed) above
T5 sequence (P30926 22-498 L142Q): as the sequence (P30926 22-498 L133V/V141I) above, with V112L, I120V, L121Q counted along it
T14 sequence (Q15825 26-239 limits assumed, stated change not applied): as the sequence (Q15825 26-239 limits assumed) above
T14 sequence (P30926 22-498 R96C): as the sequence (P30926 22-498 L133V/V141I) above, with R75C, V112L, I120V counted along it
T15 sequence (Q15825 26-239 limits assumed): as the sequence (Q15825 26-239 limits assumed) above
T15 sequence (P30926 22-498 K57R): as the sequence (P30926 22-498 L133V/V141I) above, with K36R, V112L, I120V counted along it

SMILES: CC(C)C[C@@H]1NC(=O)[C@H](CC(=O)O)NC(=O)[C@@H]2CCCN2C(=O)[C@H](Cc2c[nH]cn2)NC(=O)[C@H](CCCCN)NC(=O)[C@H](CC(N)=O)NC(=O)[C@H](CCCNC(=N)N)NC(=O)[C@@H]2CSSC[C@H](NC(=O)CN)C(=O)N[C@@H](CSSC[C@@H](C(N)=O)NC1=O)C(=O)N[C@@H](CO)C(=O)N[C@@H](CC(=O)O)C(=O)N1CCC[C@H]1C(=O)N1CCC[C@H]1C(=O)N2 [TxIB] (H-GCCSDPPCRNKHPDLC-NH2; disulfide 2-8, 3-16)
- activity at 10 µM [1]: 25.3 ± 5.23%
- Ratio (change in TxIB IC50 relative to hα6/α3β4) [2]: 4.2
- Hill Slope [3]: 0.9 (0.8–1.1)
- Ratio (change in TxIB IC50 relative to hα6/α3β4) [3]: 0.9
- Hill Slope [4]: 0.9 (0.8–1.0)
- Ratio (change in TxIB IC50 relative to hα6/α3β4) [4]: 1
- Hill Slope [5]: 0.8 (0.8–0.9)
- Ratio (change in TxIB IC50 relative to hα6/α3β4) [5]: 4.9
- time to full restoration of currents blocked by TxIB [5]: ≤ 1 min
- activity at 10 µM [5, 25]: 25.1 ± 11.2%
- Hill Slope [6]: 0.8 (0.7–0.9)
- Ratio (change in TxIB IC50 relative to hα6/α3β4) [6]: 1.7
- Hill Slope [7]: 0.9 (0.7–1.0)
- Ratio (change in TxIB IC50 relative to hα6/α3β4) [8]: 1.1
- Hill Slope [9]: 0.9 (0. 8–1.1)
- Ratio (change in TxIB IC50 relative to hα6/α3β4) [10]: 0.9
- Hill Slope [11]: 0.8 (0.6–0.9)
- Ratio (change in TxIB IC50 relative to hα6/α3β4) [11]: 42
- time to full restoration of currents blocked by TxIB [11]: ≤ 1 min
- activity at 10 µM [11, 25]: 60.2 ± 8.66%
- Hill Slope [12]: 0.8 (0.6–0.9)
- Ratio (change in TxIB IC50 relative to hα6/α3β4) [12]: 1.4
- Hill Slope [13]: 0.8 (0.7–0.9)
- Ratio (change in TxIB IC50 relative to hα6/α3β4) [13]: 0.6
- Hill Slope [14]: 0.9 (0.8–1.0)
- Ratio (change in TxIB IC50 relative to hα6/α3β4) [14]: 1.6
- Hill Slope [15]: 0.8 (0.7–0.9)
- Ratio (change in TxIB IC50 relative to hα6/α3β4) [16]: 1.2
- Hill Slope [17]: 0.9 (0.7–1.2)
- Ratio (change in TxIB IC50 relative to hα6/α3β4) [18]: 1
- Hill Slope [19]: 0.8 (0.7–1.0)
- Ratio (change in TxIB IC50 relative to hα6/α3β4) [19]: 0.9
- Hill Slope [20]: 0.8 (0.7–0.9)
- Ratio (change in TxIB IC50 relative to hα6/α3β4) [20]: 2.2
- Hill Slope [21]: 0.9 (0.7–1.0)
- Ratio (change in TxIB IC50 relative to hα6/α3β4) [21]: 0.8
- IC50 [22]: 28 nM
- Hill Slope [23]: 0.9 (0.7–1.1)
- Ratio (change in TxIB IC50 relative to hα6/α3β4) [23]: 1.5
- Hill Slope [24]: 0.8 (0.8–0.9)
- Ratio (change in TxIB IC50 relative to hα6/α3β4) [24]: 1.4
